The source of these data is patent US20020137676A1, “Selective treatment of endothelial somatostatin receptors” (priority 1998, published 2002).

Holding throughout (assay type): cell-based, human
For assay [1], the system named is ECV304 or HUVEC cells. Nature of the assay: Actin cytoskeleton effects of SSTR selective ligands on endothelial cells. As to the method:
(§1) The cells were subsequently incubated at 37° C. for 30 min, fixed in 4% PFA for 5 min and washed in PBS. The actin cytoskeleton was visualized by incubating the cells with ALEXA-488 conjugated phalloidin (1:50, Molecular Probes Inc., Eugene, Oreg.) for 15 min at room temperature. Cells were screened using a Zeiss Axiophot microscope as previously described. Similar protocols were used to evaluate the effects SSTR1 selective ligands on endothelial cells.

Assay [2] deals with Na/H exchanger on ECV304 cells. In words: Intracellular pH imaging of the Na/H exchanger.
Assay [3] concerns ECV304 cells. In words: Actin cytoskeleton visualised with fluorescently labelled phalloidin. To be noted: 10 nM, 37° C. for 30 min. As to the method:
as §1

The subject of assay [4] is ECV304 cells. In words: ECV304/Matrigel in vitro angiogenesis model (capillary-like tube formation). The settings on record: sub-micromolar and higher concentrations; ECV304 on Matrigel. The text has this: In one aspect, the present invention utilises an established model system for assaying the effect of SSTR ligands on human angiogenesis. In one embodiment, the model system comprises the spontaneously transformed human umbilical vein endothelial cell line, ECV304, grown on a Matrigel substrate (Hughes, 1996, Experimental Cell Research 225:171-185). Matrigel is a solubilized basement membrane extract that promotes the differentiation of endothelial cells into capillary tube-like structures in vitro. It has been shown that cytoskeletal reorganization occurs when human umbilical vein endothelial cells undergo the morphological changes associated with neovascular tube formation on a Matrigel substrate (Grant et al., 1991, In Vitro Cell Dev. Biol. 27A(4):327-36.). […] This assay can also be used to identify […] ligands that stimulate the process of angiogenesis. […]
ECV304 cells (3.5×10^4 in 0.5 mL complete M199 medium) were placed onto 24-well plates that were pre-coated with 0.125 mL of Matrigel (Becton-Dickinson). […] After 24 hours, images of tube-formation were recorded on film. Images were converted into a digital format using a Hewlett-Packard ScanJet 4C/T scanner, the summed length of capillary-like tubes was quantified using Optimas 6.1 image analysis software (Optimas Corp.).

Ends that are not written are not given here.

“des-AA^1,2,5 [DTrp^8,IAamp^9]SS [SSTR1 '499 agonist]”: in assay [1], the actin stress fibres entry is on record as “decrease in stress fibres” and the lamellipodia formation entry is given as “increase in lamellipodia formation”.

For “Somatostatin-14 (AGCKNFFWKTFTSC; ends and bridges not checked; cysteine pairing not given here; UniProt P61278 103-116, looked up) [SS14, native 14 amino acid form of somatostatin, an endogenous cyclic peptide; agonist of all somatostatin receptor subtypes]”, the “effect on Na/H exchanger” value in assay [2] is on record as “inhibit”. Also, in assay [3], the actin stress fibres result is “loss of long stress fibers”; the “lamellipodia at the plasma membrane” value was “increase in the number and size of lamellipodia”. The “inhibition of neovascular growth” value in assay [4] is listed as “significantly inhibit neovascular growth”.
